Experimental data taken from PMC5382172 (Frontiers in Molecular Neuroscience, 2017).
Where a chain is given by its changes, count along the chain named. Numbers in names are those of the source.

Experiments:
[1] = molecular target: T1, GluClαY194R/βWT receptor (Caenorhabditis elegans, UniProt G5EBR3+Q17328, Y194R); experiment: Whole-cell patch clamp in CHO cells, GluClαY194R/βWT receptor; type: cell-based; conditions: +60 mV
T1 construct: entry codes of the full-length subunits used in this study; expressed in transfected cells; host or cells: CHO cells, transient co-transfection 1:1, pcDNA3.1
T1 sequence (G5EBR3 21-461 Y194R, one chain of several): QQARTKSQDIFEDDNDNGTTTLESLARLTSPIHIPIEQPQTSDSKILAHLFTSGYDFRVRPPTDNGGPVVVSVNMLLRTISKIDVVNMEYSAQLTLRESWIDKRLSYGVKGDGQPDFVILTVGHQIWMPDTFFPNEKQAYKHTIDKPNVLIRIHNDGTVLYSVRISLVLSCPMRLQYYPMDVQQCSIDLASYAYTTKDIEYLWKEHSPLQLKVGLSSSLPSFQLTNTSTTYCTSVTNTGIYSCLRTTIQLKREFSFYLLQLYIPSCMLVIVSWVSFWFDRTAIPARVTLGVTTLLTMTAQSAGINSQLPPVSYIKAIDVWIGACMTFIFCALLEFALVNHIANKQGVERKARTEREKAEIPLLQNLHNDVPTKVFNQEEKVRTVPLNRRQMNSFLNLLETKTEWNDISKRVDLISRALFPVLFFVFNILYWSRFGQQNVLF
Procedure: (§1) Chinese hamster ovary (CHO) cells were cultured as previously (Bar-Lev et al., [2011]) in Dulbecco’s Modified Eagle Medium (DMEM) containing 10% fetal calf serum, 2 mM glutamax, 100 Units/ml penicillin G and 100 μg/ml streptomycin, and grown in 5% CO2 at 37°C under 90%–95% humidity. The cells were seeded on glass coverslips (13-mm diameter) placed in a 24-multiwell plate. […] For the expression of GluCl receptors, cells were transiently co-transfected with pcDNA3.1 plasmids containing the ORFs of interest using transit-LT1 transfection reagent (Mirus, Madison, WI, USA), according to the manufacturer’s protocol. The cDNAs encoding the C. elegans GluClα (GLC-1) or its mutated versions and the GluClβ (GLC-2) subunits (200–600 ng per well) were used at 1:1 ratio. The pIRES-CD8 plasmid (200 ng per well) was added to enable the visualization of the expressing cells by beads coated with anti-CD8 antibodies (Invitrogen). […]
(§2) Whole-cell patch clamp recordings were performed as described previously (Bar-Lev et al., [2011]) in CHO cells that were prepared as detailed above. […] The currents were measured with an Axopatch 200B patch-clamp amplifier (Molecular Devices, Sunnyvale, CA, USA) and a Digidata 1440A interface (Molecular Devices). […]

[2] = molecular target: T2, GluClαWT (GLC-1) homomeric receptor (Caenorhabditis elegans, UniProt G5EBR3); design: method as in Degani-Katzav et al., [2016]; conditions: CHO cells, αWT alone; ref Degani-Katzav et al., [2016]; cited from earlier work
T2 construct: entry codes of the full-length subunits used in this study; expressed in transfected cells; host or cells: CHO cells, transient transfection, pcDNA3.1
T2 sequence (G5EBR3 21-461): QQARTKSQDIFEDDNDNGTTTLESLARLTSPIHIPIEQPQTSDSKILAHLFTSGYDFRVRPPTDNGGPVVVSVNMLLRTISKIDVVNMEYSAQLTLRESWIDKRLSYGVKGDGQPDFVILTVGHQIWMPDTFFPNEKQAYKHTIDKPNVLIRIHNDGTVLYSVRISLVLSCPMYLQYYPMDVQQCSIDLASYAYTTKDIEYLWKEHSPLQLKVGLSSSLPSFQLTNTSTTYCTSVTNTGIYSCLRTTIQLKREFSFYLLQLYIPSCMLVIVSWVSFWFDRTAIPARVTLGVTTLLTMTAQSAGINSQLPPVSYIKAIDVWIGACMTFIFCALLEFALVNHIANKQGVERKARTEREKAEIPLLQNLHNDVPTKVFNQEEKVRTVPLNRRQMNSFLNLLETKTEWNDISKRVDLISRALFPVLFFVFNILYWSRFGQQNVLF

[3] = molecular target: T3, GluClαE273R/βWT receptor (Caenorhabditis elegans, UniProt G5EBR3+Q17328, E273R); experiment: Whole-cell patch clamp in CHO cells, GluClαE273R/βWT receptor; type: cell-based; conditions: +60 mV
T3 construct: entry codes of the full-length subunits used in this study; expressed in transfected cells; host or cells: CHO cells, transient co-transfection 1:1, pcDNA3.1
T3 sequence (G5EBR3 21-461 E273R, one chain of several): as the sequence (G5EBR3 21-461 Y194R, one chain of several) above, with R174Y, E253R counted along it
Procedure: as §1, §2

[4] = molecular target: T4, GluClα[SSS→GSD]/βWT receptor (Caenorhabditis elegans, UniProt G5EBR3+Q17328, S236G/S238D); experiment: Whole-cell patch clamp in CHO cells, GluClα[SSS→GSD]/βWT receptor; type: cell-based; conditions: +60 mV
T4 construct: entry codes of the full-length subunits used in this study; expressed in transfected cells; host or cells: CHO cells, transient co-transfection 1:1, pcDNA3.1
T4 sequence (G5EBR3 21-461 S236G/S238D, one chain of several): as the sequence (G5EBR3 21-461 Y194R, one chain of several) above, with R174Y, S216G, S218D counted along it
Procedure: as §1, §2

[5] = molecular target: T5, GluClβWT (GLC-2) homomeric receptor (Caenorhabditis elegans, UniProt Q17328); conditions: CHO cells, βWT alone, ref Degani-Katzav et al., cited from earlier work
T5 construct: entry codes of the full-length subunits used in this study; expressed in transfected cells; host or cells: CHO cells, transient transfection, pcDNA3.1
T5 sequence (Q17328 23-434): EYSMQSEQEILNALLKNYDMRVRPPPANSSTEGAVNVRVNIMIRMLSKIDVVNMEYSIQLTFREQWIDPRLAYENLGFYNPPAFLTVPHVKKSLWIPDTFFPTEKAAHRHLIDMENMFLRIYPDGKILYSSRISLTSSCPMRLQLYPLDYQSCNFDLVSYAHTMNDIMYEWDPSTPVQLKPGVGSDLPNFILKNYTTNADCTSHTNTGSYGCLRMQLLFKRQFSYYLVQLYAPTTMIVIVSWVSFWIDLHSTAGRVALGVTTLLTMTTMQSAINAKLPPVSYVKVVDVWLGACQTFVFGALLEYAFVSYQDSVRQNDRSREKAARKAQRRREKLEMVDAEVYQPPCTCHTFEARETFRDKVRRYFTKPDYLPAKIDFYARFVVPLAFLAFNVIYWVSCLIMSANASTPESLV

[6] = molecular target: T6, GluClαP192E/βWT receptor (Caenorhabditis elegans, UniProt G5EBR3+Q17328, P192E); experiment: Whole-cell patch clamp in CHO cells, GluClαP192E/βWT receptor; type: cell-based; conditions: +60 mV
T6 construct: entry codes of the full-length subunits used in this study; expressed in transfected cells; host or cells: CHO cells, transient co-transfection 1:1, pcDNA3.1
T6 sequence (G5EBR3 21-461 P192E, one chain of several): as the sequence (G5EBR3 21-461 Y194R, one chain of several) above, with P172E, R174Y counted along it
Procedure: as §1, §2

[7] = molecular target: T7, GluClαF276W/βWT receptor (Caenorhabditis elegans, UniProt G5EBR3+Q17328, F276W); experiment: Whole-cell patch clamp in CHO cells, GluClαF276W/βWT receptor; type: cell-based; conditions: +60 mV
T7 construct: entry codes of the full-length subunits used in this study; expressed in transfected cells; host or cells: CHO cells, transient co-transfection 1:1, pcDNA3.1
T7 sequence (G5EBR3 21-461 F276W, one chain of several): as the sequence (G5EBR3 21-461 Y194R, one chain of several) above, with R174Y, F256W counted along it
Procedure: as §1, §2

[8] = molecular target: T8, GluClαF276A/βWT receptor (Caenorhabditis elegans, UniProt G5EBR3+Q17328, F276A); experiment: Whole-cell patch clamp in CHO cells, GluClαF276A/βWT receptor; type: cell-based
T8 construct: entry codes of the full-length subunits used in this study; expressed in transfected cells; host or cells: CHO cells, transient co-transfection, pcDNA3.1 (X-tremeGENE HP for the IVM-EC50 experiments)
T8 sequence (G5EBR3 21-461 F276A, one chain of several): as the sequence (G5EBR3 21-461 Y194R, one chain of several) above, with R174Y, F256A counted along it
Procedure: (§3) Chinese hamster ovary (CHO) cells were cultured as previously (Bar-Lev et al., [2011]) in Dulbecco’s Modified Eagle Medium (DMEM) containing 10% fetal calf serum, 2 mM glutamax, 100 Units/ml penicillin G and 100 μg/ml streptomycin, and grown in 5% CO2 at 37°C under 90%–95% humidity. The cells were seeded on glass coverslips (13-mm diameter) placed in a 24-multiwell plate. […] For the expression of GluCl receptors, cells were transiently co-transfected with pcDNA3.1 plasmids containing the ORFs of interest using transit-LT1 transfection reagent (Mirus, Madison, WI, USA), according to the manufacturer’s protocol. The cDNAs encoding the C. elegans GluClα (GLC-1) or its mutated versions and the GluClβ (GLC-2) subunits (200–600 ng per well) were used at 1:1 ratio. The pIRES-CD8 plasmid (200 ng per well) was added to enable the visualization of the expressing cells by beads coated with anti-CD8 antibodies (Invitrogen). For high-level expression of the GluClαF276A/βWT mutant receptor in experiments assigned to determine its IVM-EC50, we used the X-tremeGENE HP DNA Transfection Reagent (Roche Life Science). Recordings were performed 72–96 h following the transfection.
(§4) Whole-cell patch clamp recordings were performed as described previously (Bar-Lev et al., [2011]) in CHO cells that were prepared as detailed above. The normal external solution (NES) contained (in millimolar): 140 NaCl, 2.8 KCl, 2 CaCl2, 2 MgCl2, 10 glucose and 10 HEPES, adjusted to pH 7.35 with NaOH (310 mOsm/L). The pipette solution contained (in millimolar): 130 KCl, 4 MgCl2, 4 Na2ATP, 1 EGTA and 10 HEPES, adjusted to pH 7.35 with KOH (290 mOsm/L). The osmolarity of these solutions was maintained by adding sucrose. The electrode resistance was 6–10 MΩ when filled with the pipette solution. External solutions were applied onto the cell by using the VC-77SP fast-step system (Warner Instruments, Hamden, CT, USA) combined with N2 pressure of 3–4 psi to produce laminar flow of the external solution onto the patched cell. All measurements were performed at room temperature. The currents were measured with an Axopatch 200B patch-clamp amplifier (Molecular Devices, Sunnyvale, CA, USA) and a Digidata 1440A interface (Molecular Devices). Acquisition of recording data was performed at 2.5 kHz and recordings were low-pass filtered at 1 kHz, through a four-pole Bessel filter. The pClamp 10 software (Molecular Devices) was used for data acquisition. […] Five-hundred milliseconds after the application started (which is also after the current reached to its peak at −60 mV), the voltage was stepped from −60 mV to −80 mV for 50 ms followed by a 250-ms-long voltage ramp ranging from −80 mV to +80 mV.
(§5) Dose-response curves were fitted to the data points by a nonlinear regression using the Hill Equation 1,

[9] = molecular target: T9, GluClαP192M/βWT receptor (Caenorhabditis elegans, UniProt G5EBR3+Q17328, P192M); experiment: Whole-cell patch clamp in CHO cells, GluClαP192M/βWT receptor; type: cell-based; conditions: +60 mV
T9 construct: entry codes of the full-length subunits used in this study; expressed in transfected cells; host or cells: CHO cells, transient co-transfection 1:1, pcDNA3.1
T9 sequence (G5EBR3 21-461 P192M, one chain of several): as the sequence (G5EBR3 21-461 Y194R, one chain of several) above, with P172M, R174Y counted along it
Procedure: as §1, §2

[10] = molecular target: T10, GluClαWT/βWT receptor (Caenorhabditis elegans, UniProt G5EBR3+Q17328); design: method as in Degani-Katzav et al., [2016]; conditions: CHO cells co-transfected with WT α and β subunits; ref Degani-Katzav et al., [2016]; cited from earlier work
T10 construct: entry codes of the full-length subunits used in this study; expressed in transfected cells; host or cells: CHO cells, transient co-transfection 1:1, pcDNA3.1
T10 sequence (G5EBR3 21-461): T2 sequence (G5EBR3 21-461)
T10 sequence (Q17328 23-434): T5 sequence (Q17328 23-434)

[11] = molecular target: T11, GluClαP192Y/βWT receptor (Caenorhabditis elegans, UniProt G5EBR3+Q17328, P192Y); experiment: Whole-cell patch clamp in CHO cells, GluClαP192Y/βWT receptor; type: cell-based; conditions: +60 mV
T11 construct: entry codes of the full-length subunits used in this study; expressed in transfected cells; host or cells: CHO cells, transient co-transfection 1:1, pcDNA3.1
T11 sequence (G5EBR3 21-461 P192Y, one chain of several): as the sequence (G5EBR3 21-461 Y194R, one chain of several) above, with P172Y, R174Y counted along it
Procedure: as §1, §2

[12] = molecular target: T10, GluClαWT/βWT receptor; experiment: Whole-cell patch clamp in CHO cells, GluClαWT/βWT receptor; type: cell-based
Procedure: as §3, §4, §5

[13] = molecular target: T12, C. elegans GluClβWT subunit (GLC-2) (C. elegans) (UniProt Q17328)
T12 sequence: T5 sequence (Q17328 23-434)

## N[C@@H](CCC(=O)O)C(=O)O [Glu, glutamate]
[1]
  Glu activation properties nH (Hill coefficient): 1.5 ± 0.1
[2]
  response to 10 mM Glu: very weak responses
[3]
  Glu activation properties nH (Hill coefficient): 1.5 ± 0.1
[4]
  Glu activation properties nH (Hill coefficient): 1.3 ± 0.1
[5]; X-tremeGENE HP transfection, [2017]
  cells responding to 100 mM Glu: 4 of 46
[5]; [2016]
  response to 10 mM Glu: very weak, rare responses
[6]
  Glu activation properties nH (Hill coefficient): 1.5 ± 0.1
[7]
  Glu activation properties nH (Hill coefficient): 1.5 ± 0.1
[8]; 1 mM Glu
  receptor population activated: ~ 5%
[8]; CHO cells, +60 mV
  Glu activation properties nH (Hill coefficient): 1.3 ± 0.1
[8]; pre-exposure to 50 nM IVM
  Hill coefficient of activation by Glu after pre-exposure to IVM: 1.5 ± 0.03
[9]
  Glu activation properties nH (Hill coefficient): 1.6 ± 0.1
[10]
  response to Glu: robust responses
[11]
  Glu activation properties nH (Hill coefficient): 1.5 ± 0.1
[12]; 0.3 mM Glu, calculated from the Glu dose-response curve
  receptor population activated: ~ 7%
[12]; CHO cells, +60 mV
  Glu activation properties nH (Hill coefficient): 1.6 ± 0.1
[12]; pre-exposure to 7 nM IVM
  Hill coefficient of activation by Glu after pre-exposure to IVM: 1.2 ± 0.07

B1: C. elegans GluClα (GLC-1) subunit, P192E (receptor)
chain: T2 sequence (G5EBR3 21-461) with P172E
[13]
  whole-cell current amplitude in response to the Glu-EC50 concentration, CHO cells co-transfected with both subunits, +60 mV: 3.1 nA

B2: C. elegans GluClα (GLC-1) subunit, P192M (receptor)
chain: T2 sequence (G5EBR3 21-461) with P172M
[13]
  whole-cell current amplitude in response to the Glu-EC50 concentration, CHO cells co-transfected with both subunits, +60 mV: 3.2 nA

B3: C. elegans GluClα (GLC-1) subunit, P192Y (receptor)
chain: T2 sequence (G5EBR3 21-461) with P172Y
[13]
  whole-cell current amplitude in response to the Glu-EC50 concentration, CHO cells co-transfected with both subunits, +60 mV: 2.1 nA

B4: C. elegans GluClα (GLC-1) subunit, Y194R (receptor)
chain: T2 sequence (G5EBR3 21-461) with Y174R
[13]
  whole-cell current amplitude in response to the Glu-EC50 concentration, CHO cells co-transfected with both subunits, +60 mV: 5.9 nA

B5: C. elegans GluClα (GLC-1) subunit, SSS→GSD (positions 236–238) (receptor)
chain: T2 sequence (G5EBR3 21-461) with S216G, S218D
[13]
  whole-cell current amplitude in response to the Glu-EC50 concentration, CHO cells co-transfected with both subunits, +60 mV: 2.9 nA

B6: C. elegans GluClα (GLC-1) subunit, E273R (receptor)
chain: T2 sequence (G5EBR3 21-461) with E253R
[13]
  whole-cell current amplitude in response to the Glu-EC50 concentration, CHO cells co-transfected with both subunits, +60 mV: 2.2 nA

B7: C. elegans GluClα (GLC-1) subunit, F276A (receptor)
chain: T2 sequence (G5EBR3 21-461) with F256A
[13]
  whole-cell current amplitude in response to the Glu-EC50 concentration, CHO cells co-transfected with both subunits, +60 mV: 3.1 nA

B8: C. elegans GluClα (GLC-1) subunit, F276W (receptor)
chain: T2 sequence (G5EBR3 21-461) with F256W
[13]
  whole-cell current amplitude in response to the Glu-EC50 concentration, CHO cells co-transfected with both subunits, +60 mV: 3 nA
